Reference: the Kinase Knowledgebase extract (Sharma et al. 2016)
pIC50: −log10 of the molar value. “And” between values parts separate entries of the source, which are not always exact repeats. Equal entries are not always repeated.

Experiments:
CDK2;CDK1 (human) = CDK2;CDK1 (human) (UniProt P24941); assay: Cell-Based Assay
CDK2 (human) [1] = target: CDK2 (human) (UniProt P24941); assay: Enzyme Assay
CDK2 (human) [2] = target: CDK2 (human) (UniProt P24941); assay: Enzyme Assay; remark: listed apart in the source

**Q.** How did the GI50 (CDK2;CDK1 (human); hela-s3) turn out when CC(C)n1cnc2c(NCc3ccc(-c4cccc(F)c4)cc3)nc(N[C@H]3CC[C@H](N)CC3)nc21 was run?
**A.** The GI50 was 0.05 µM and 0.03 µM.

**Q.** CC(=O)N[C@H]1CC[C@H](Nc2nc(NCc3ccc(-c4ccc(F)cc4)cc3)c3ncn(C(C)C)c3n2)CC1 was tested. Which pIC50 (CDK2 (human) [1]) did it give?
**A.** Its pIC50 is under 5.00.

**Q.** CC(=O)N[C@H]1CC[C@H](Nc2nc(NCc3ccc(-c4ccc(Cl)cc4)cc3)c3ncn(C(C)C)c3n2)CC1 was tested. Which pIC50 (CDK2 (human) [1]) did it give?
**A.** Its pIC50 is under 5.00.

**Q.** With CC(=O)N[C@H]1CCCC[C@@H]1Nc1nc(NCc2ccc(-c3ccccc3)cc2)c2ncn(C(C)C)c2n1 as the molecule, how does the pIC50 (CDK2 (human) [1]) read?
**A.** The pIC50 was under 5.00.

**Q.** And the pIC50 (CDK2 (human) [2])?
**A.** The pIC50 was under 5.00.

**Q.** CC(=O)C1CCN(c2nc(NCc3ccc(-c4ccccc4)cc3)c3ncn(C(C)C)c3n2)CC1 was tested. Which GI50 (CDK2;CDK1 (human); hela-s3) did it give?
**A.** Its GI50 is 3 µM and 5 µM.

**Q.** Which GI50 (CDK2;CDK1 (human); h226) does the source give for CC(=O)N[C@H]1CC[C@H](Nc2nc(NCc3ccc(-c4ccccc4)nc3)c3ncn(C(C)C)c3n2)CC1 here?
**A.** Its GI50 is 0.052 µM.

**Q.** CC(=O)N[C@H]1CC[C@H](Nc2nc(NCc3ccc(-c4ccc(C)cc4)cc3)c3ncn(C(C)C)c3n2)CC1 was tested. Which pIC50 (CDK2 (human) [1]) did it give?
**A.** Its pIC50 is under 5.00.

**Q.** COC(=O)c1ccc(-c2ccc(CNc3nc(N[C@H]4CC[C@H](NC(C)=O)CC4)nc4c3ncn4C(C)C)cc2)cc1 was tested. Which pIC50 (CDK2 (human) [1]) did it give?
**A.** The pIC50 was under 5.00.

**Q.** CC(=O)N[C@H]1CC[C@H](Nc2nc(NCc3ccc(-c4ccc(F)c(Cl)c4)cc3)c3ncn(C(C)C)c3n2)CC1 was tested. Which pIC50 (CDK2 (human) [1]) did it give?
**A.** The pIC50 was under 5.00.

**Q.** CC(C)n1cnc2c(NCc3ccc(-c4ccccc4)cc3)nc(NC3(CO)CCCC3)nc21 was tested. Which pIC50 (CDK2 (human) [1]) did it give?
**A.** Its pIC50 is under 5.00.

**Q.** With CC(C)n1cnc2c(NCc3ccc(-c4ccccc4)cc3)nc(N[C@H]3CCCC[C@H]3NC(=O)Nc3ccccc3)nc21 as the molecule, how does the pIC50 (CDK2 (human) [1]) read?
**A.** Its pIC50 is under 5.00.

**Q.** What about the pIC50 (CDK2 (human) [2]) of the same molecule?
**A.** Its pIC50 is under 5.00.

**Q.** With CC(=O)N[C@@H](C)CNc1nc(NCc2ccc(-c3ccccc3)cc2)c2ncn(C(C)C)c2n1 as the molecule, how does the pIC50 (CDK2 (human) [1]) read?
**A.** The pIC50 was at most 5.00.

**Q.** And the pIC50 (CDK2 (human) [2])?
**A.** Its pIC50 is under 5.00.

**Q.** How did the GI50 (CDK2;CDK1 (human); hela-s3) turn out when CC(=O)N[C@H]1CC[C@H](Nc2nc(NCc3ccc(-c4cccc(F)c4)cc3)c3ncn(C(C)C)c3n2)CC1 was run?
**A.** Its GI50 is 0.07 µM and 0.2 µM.

**Q.** How did the pIC50 (CDK2 (human) [1]) turn out when CC(=O)N[C@H]1CC[C@H](Nc2nc(NCc3ccc(-c4ccc(C(=O)O)cc4)cc3)c3ncn(C(C)C)c3n2)CC1 was run?
**A.** The pIC50 was under 5.00.

**Q.** What about the pIC50 (CDK2 (human) [2]) of the same molecule?
**A.** The pIC50 was under 5.00.

**Q.** Which GI50 (CDK2;CDK1 (human); adr-res) does the source give for CC(C)n1cnc2c(NCc3ccc(-c4ccccc4)cc3)nc(N[C@H]3CC[C@H](O)CC3)nc21 here?
**A.** The GI50 was 0.03 µM.

**Q.** What about the pIC50 (CDK2 (human) [1]) of the same molecule?
**A.** Its pIC50 is under 5.00.

**Q.** CC[C@H](CO)Nc1nc(NCc2ccc(-c3cccc(NC(C)=O)c3)cc2)c2ncn(C(C)C)c2n1 was tested. Which pIC50 (CDK2 (human) [1]) did it give?
**A.** The pIC50 was under 5.00.
